“And” between values parts separate entries of the source, which are not always exact repeats. Equal values may be shown once.
Test system: 454973-116-R2-J3-PDC spheroids, percent test/control viability
Assay: Anticancer human tumor 454973-116-R2-J3-PDC patient-derived pancreatic carcinoma cell line growth inhibition [CLK]
Conditions: spheroids with HUVEC and MSC; for viability, T/C: stronger effect = lower value
Summary of the method: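 Multi-cell-type spheroids combined patient-derived tumor cells with HUVEC endothelial cells and human mesenchymal stem cells. Paired agents were dosed in half-log steps down from about clinical Cmax, or from 10 microM where Cmax was unknown.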

[1] = curve of first compound, second compound 0.0316 µM
[2] = curve of first compound, second compound 0.1 µM
[3] = curve of first compound, second compound 0.316 µM
[4] = curve of first compound, second compound 1 µM
[5] = curve of first compound, second compound 3.16 µM
[6] = curve of first compound, second compound 10 µM
[7] = second compound 0.0316 µM, first compound 0.0316 µM
[8] = second compound 0.0316 µM, first compound 0.1 µM
[9] = second compound 0.0316 µM, first compound 0.316 µM
[10] = second compound 0.0316 µM, first compound 1 µM
[11] = second compound 0.0316 µM, first compound 3.16 µM
[12] = second compound 0.0316 µM, first compound 10 µM
[13] = second compound 0.1 µM, first compound 0.0316 µM
[14] = second compound 0.1 µM, first compound 0.1 µM
[15] = second compound 0.1 µM, first compound 0.316 µM
[16] = second compound 0.1 µM, first compound 1 µM
[17] = second compound 0.1 µM, first compound 3.16 µM
[18] = second compound 0.1 µM, first compound 10 µM
[19] = second compound 0.316 µM, first compound 0.0316 µM
[20] = second compound 0.316 µM, first compound 0.1 µM
[21] = second compound 0.316 µM, first compound 0.316 µM
[22] = second compound 0.316 µM, first compound 1 µM
[23] = second compound 0.316 µM, first compound 3.16 µM
[24] = second compound 0.316 µM, first compound 10 µM
[25] = second compound 1 µM, first compound 0.0316 µM
[26] = second compound 1 µM, first compound 0.1 µM
[27] = second compound 1 µM, first compound 0.316 µM
[28] = second compound 1 µM, first compound 1 µM
[29] = second compound 1 µM, first compound 3.16 µM
[30] = second compound 1 µM, first compound 10 µM
[31] = second compound 3.16 µM, first compound 0.0316 µM
[32] = second compound 3.16 µM, first compound 0.1 µM
[33] = second compound 3.16 µM, first compound 0.316 µM
[34] = second compound 3.16 µM, first compound 1 µM
[35] = second compound 3.16 µM, first compound 3.16 µM
[36] = second compound 3.16 µM, first compound 10 µM
[37] = second compound 10 µM, first compound 0.0316 µM
[38] = second compound 10 µM, first compound 0.1 µM
[39] = second compound 10 µM, first compound 0.316 µM
[40] = second compound 10 µM, first compound 1 µM
[41] = second compound 10 µM, first compound 3.16 µM
[42] = second compound 10 µM, first compound 10 µM
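Note: spheroids exposed to compounds for 7 days before readout.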

In the case of `COc1cccc2c1C(=O)c1c(O)c3c(c(O)c1C2=O)CC(O)(C(=O)CO)CC3OC1CC(N)C(O)C(C)O1` (stereo not drawn) + CNC(=O)c1ccc(Nc2nc(OC3CCCC3)c3c(-c4ccc5nc(C)oc5c4)c[nH]c3n2)c(OC)c1, the IC50 [1] is reported as 31.6 nM, the IC50 [2] is reported as under 31.6 nM and the IC50 [3] is reported as under 31.6 nM. It also gave an IC50 [4] of under 31.6 nM, an IC50 [5] of under 31.6 nM and an IC50 [6] of under 31.6 nM. It also gave a viability, T/C [7] of 51.4%, a viability, T/C [8] of 23% and a viability, T/C [9] of 21.7%. The viability, T/C [10] was 6.66%, the viability, T/C [11] was 1.89% and the viability, T/C [12] was 1.95%. For the same compound, the viability, T/C [13] was 46.4%, the viability, T/C [14] was 26.4% and the viability, T/C [15] was 19.6%. It also gave a viability, T/C [16] of 4.09%, a viability, T/C [17] of 2.62% and a viability, T/C [18] of 1.16%. For the same compound, the viability, T/C [19] was 27.8%, the viability, T/C [20] was 25% and the viability, T/C [21] was 14.5%. The viability, T/C [22] was 4.53%, the viability, T/C [23] was 2.76% and the viability, T/C [24] was 1.6%. The viability, T/C [25] was 25.2%, the viability, T/C [26] was 18.5% and the viability, T/C [27] was 9.38%. It also gave a viability, T/C [28] of 1.17%, a viability, T/C [29] of 0.61% and a viability, T/C [30] of 0.81%. The viability, T/C [31] was 26.2%, the viability, T/C [32] was 17.2% and the viability, T/C [33] was 4.87%. For the same compound, the viability, T/C [34] was 0.94%, the viability, T/C [35] was 1.27% and the viability, T/C [36] was 0.57%. For the same compound, the viability, T/C [37] was 25.1%, the viability, T/C [38] was 20.3% and the viability, T/C [39] was 3.72%. For the same compound, the viability, T/C [40] was 0.69%, the viability, T/C [41] was 1.84% and the viability, T/C [42] was 0.97%.
`C#Cc1c(F)ccc2cc(O)cc(-c3ncc4c(N5CC6CCC(C5)N6)nc(OCC56CCCN5CC(F)C6)nc4c3F)c12` (stereo not drawn) was tested, and the viability, T/C (compound 0.0316 µM) was 57% and 54.6%, the viability, T/C (compound 0.1 µM) was 43.1% and 39.1% and the viability, T/C (compound 0.316 µM) was 33.8% and 39.8%. The viability, T/C (compound 1 µM) was 29.4% and 31.3%, the viability, T/C (compound 3.16 µM) was 30.1% and 29.4% and the viability, T/C (compound 10 µM) was 22.2% and 18.5%. The IC50 (curve of compound) was 55.8 nM and 43.5 nM.
`O=c1[nH]cc(F)c(=O)[nH]1` + CN1CCN(c2cc(C(=O)Nc3cc4cc(-c5cnn(C)c5)ccc4cn3)ccn2)CC1 was tested, and the IC50 [1] was 1940 nM, the IC50 [2] was 1330 nM and the IC50 [3] was under 31.6 nM. It also gave an IC50 [4] of under 31.6 nM, an IC50 [5] of under 31.6 nM and an IC50 [6] of under 31.6 nM. For the same compound, the viability, T/C [7] was 93%, the viability, T/C [8] was 102% and the viability, T/C [9] was 95.2%. For the same compound, the viability, T/C [10] was 71.3%, the viability, T/C [11] was 30.6% and the viability, T/C [12] was 37.9%. The viability, T/C [13] was 73%, the viability, T/C [14] was 86.7% and the viability, T/C [15] was 73.5%. The viability, T/C [16] was 57.1%, the viability, T/C [17] was 27.7% and the viability, T/C [18] was 30.2%. It also gave a viability, T/C [19] of 2.26%, a viability, T/C [20] of 2.2% and a viability, T/C [21] of 3.74%. The viability, T/C [22] was 2.11%, the viability, T/C [23] was 3.66% and the viability, T/C [24] was 2.07%. For the same compound, the viability, T/C [25] was 0.1%, the viability, T/C [26] was 0.11% and the viability, T/C [27] was 0.74%. For the same compound, the viability, T/C [28] was 0.06%, the viability, T/C [29] was 0.05% and the viability, T/C [30] was 0.08%. The viability, T/C [31] was 0.14%, the viability, T/C [32] was 0.39% and the viability, T/C [33] was 0.44%. It also gave a viability, T/C [34] of 0.1%, a viability, T/C [35] of 0.14% and a viability, T/C [36] of 0.59%. It also gave a viability, T/C [37] of 0.05%, a viability, T/C [38] of 0.14% and a viability, T/C [39] of 0.14%. The viability, T/C [40] was 0.17%, the viability, T/C [41] was 0.16% and the viability, T/C [42] was 0.17%.
Compound `NC(=O)C(=Cn1cnc(-c2cc(C(F)(F)F)cc(C(F)(F)F)c2)n1)c1cncnc1` + CN1CCN(c2cc(C(=O)Nc3cc4cc(-c5cnn(C)c5)ccc4cn3)ccn2)CC1 has an IC50 [1] of 530 nM, an IC50 [2] of 167 nM and an IC50 [3] of under 9.49 nM. The IC50 [4] was under 9.49 nM, the IC50 [5] was under 9.49 nM and the IC50 [6] was under 9.49 nM. It also gave a viability, T/C (second compound 0.0316 µM, first compound 0.00949 µM) of 93.1%, a viability, T/C (second compound 0.0316 µM, first compound 0.03 µM) of 96.2% and a viability, T/C (second compound 0.0316 µM, first compound 0.0949 µM) of 70.5%. The viability, T/C (second compound 0.0316 µM, first compound 0.3 µM) was 65.9%, the viability, T/C (second compound 0.0316 µM, first compound 0.949 µM) was 36.9% and the viability, T/C (second compound 0.0316 µM, first compound 3 µM) was 9.03%. For the same compound, the viability, T/C (second compound 0.1 µM, first compound 0.00949 µM) was 81.8%, the viability, T/C (second compound 0.1 µM, first compound 0.03 µM) was 65.2% and the viability, T/C (second compound 0.1 µM, first compound 0.0949 µM) was 62.8%. It also gave a viability, T/C (second compound 0.1 µM, first compound 0.3 µM) of 41%, a viability, T/C (second compound 0.1 µM, first compound 0.949 µM) of 20.2% and a viability, T/C (second compound 0.1 µM, first compound 3 µM) of 2%. For the same compound, the viability, T/C (second compound 0.316 µM, first compound 0.00949 µM) was 0.71%, the viability, T/C (second compound 0.316 µM, first compound 0.03 µM) was 0.67% and the viability, T/C (second compound 0.316 µM, first compound 0.0949 µM) was 0.65%. It also gave a viability, T/C (second compound 0.316 µM, first compound 0.3 µM) of 0.1%, a viability, T/C (second compound 0.316 µM, first compound 0.949 µM) of 0.08% and a viability, T/C (second compound 0.316 µM, first compound 3 µM) of 0.11%. For the same compound, the viability, T/C (second compound 1 µM, first compound 0.00949 µM) was 0.11%, the viability, T/C (second compound 1 µM, first compound 0.03 µM) was 0.15% and the viability, T/C (second compound 1 µM, first compound 0.0949 µM) was 1.14%. For the same compound, the viability, T/C (second compound 1 µM, first compound 0.3 µM) was 0.08%, the viability, T/C (second compound 1 µM, first compound 0.949 µM) was 0.08% and the viability, T/C (second compound 1 µM, first compound 3 µM) was 0.06%. The viability, T/C (second compound 3.16 µM, first compound 0.00949 µM) was 0.08%, the viability, T/C (second compound 3.16 µM, first compound 0.03 µM) was 0.28% and the viability, T/C (second compound 3.16 µM, first compound 0.0949 µM) was 0.13%. For the same compound, the viability, T/C (second compound 3.16 µM, first compound 0.3 µM) was 0.13%, the viability, T/C (second compound 3.16 µM, first compound 0.949 µM) was 0.1% and the viability, T/C (second compound 3.16 µM, first compound 3 µM) was 0.72%. The viability, T/C (second compound 10 µM, first compound 0.00949 µM) was 1.5%, the viability, T/C (second compound 10 µM, first compound 0.03 µM) was 0.12% and the viability, T/C (second compound 10 µM, first compound 0.0949 µM) was 0.2%. It also gave a viability, T/C (second compound 10 µM, first compound 0.3 µM) of 0.2%, a viability, T/C (second compound 10 µM, first compound 0.949 µM) of 0.22% and a viability, T/C (second compound 10 µM, first compound 3 µM) of 0.23%.

Reference: PubChem BioAssay AID2060618 (Molecular Pharmacology Branch, DTP, NCI, 2025)
